Measured values reported in paper PMC10907374, “G2019S selective LRRK2 kinase inhibitor abrogates mitochondrial DNA damage” (NPJ Parkinson's Disease, 2024).
“Also recorded” adds a separate entry of the source.

Experiments:
Format in all cases: cell-based, human
[1] = system: LRRK2^G2019S/G2019S KI HEK293 cells; assay: Mitophagy (Mtphagy dye / Lyso dye live cell imaging) in LRRK2 G2019S/G2019S KI HEK293 cells; settings: 100 nM 2 h pre-treatment; for basal levels of mitophagy: Mitophagy dye intensity or co-localization; for FCCP-stimulated mitophagy defect: then 20 μM FCCP 3 h
Procedure: Thirty-five mm cell culture dishes (Cellvis, D35-20-1.5-N) were coated with poly-D-lysine (Sigma-Aldrich, P7280-5MG) for 5 min, washed with cell culture grade water (Sigma-Aldrich, W3500), and allowed to dry for at least 1 h before plating. LRRK2^G2019S/G2019S KI HEK293 and wild-type cells were passaged as described above and plated at 300,000 cells per well on poly-D-lysine-coated dishes. […] Following this, cells were washed three times with serum-free medium, and a working solution of Mtphagy dye (Dojindo, MD-01) was prepared in serum-free medium according to manufacturer protocols. Cultures were incubated with Mtphagy dye for 30 min, followed by three washes with serum-free medium. Complete medium was used to prepare a 20 µM FCCP (Abcam, ab120081) or DMSO control treatment solution, which was used to treat cells for 3 h. Following treatment, cells were then washed 3 times with serum-free medium, and a working solution of Lyso dye (Dojindo, MD-01) was prepared in serum-free medium and used to treat cells for 30 min. Complete medium lacking phenol red was prepared for use in confocal live cell imaging by combining phenol red-free DMEM/F-12 (Fisher Scientific, 21-041-025), FBS (VWR, 97068-085), and penicillin-streptomycin (VWR, 45000-652). Following Lyso dye treatment, cultures were washed three times with phenol red-free medium, followed by adding fresh phenol red-free medium to cell culture dishes. MitoBright LT Deep Red (Dojindo, MT12-12) was diluted in growth medium to prepare a 0.1 μmol/l solution and was used to treat cells for 15 min for total mitochondrial staining. Live cell imaging (5% CO2, 37 °C) was performed using a Zeiss LSM 880 Confocal Laser Scanning Microscope with Zen Black software. On average, ~70 cells were analyzed for each condition per each experimental replicate.
Following imaging, files were processed using Zen Blue software, and TIFF files of each channel were obtained for analysis. ImageJ was used to obtain readouts for image analysis. All images were converted to 8-bit format. For each respective image, the Lyso dye channel was used to create a mask delineating each lysosomal focus as a region of interest (ROI). Thresholding parameters were adjusted between biological replicates as required to ensure that the Lyso dye ROI encompassed all lysosome foci appropriately, and this was used to create a mask. This was then applied to the corresponding Mtphagy dye channel image, allowing collection of Mtphgy fluorescence intensity readouts for each lysosomal focus. Outliers were removed using Prism software (GraphPad) with the coefficient of removal set to 0.2%. Data was thresholded to exclude lysosomes not containing mitochondria by excluding fluorescence values with intensities equal to or below background levels. The number of ROIs remaining after thresholding was used to quantify lysosomes containing fluorescing mitochondria (mitolysosomes). Fluorescence intensity values for all mitolysosomes per condition per biological replicate were averaged to obtain a value of mitophagy fluorescence intensity per mitolysosome. For each replicate, all values of average mitolysosome fluorescence intensity were normalized to wild-type (vehicle treated) levels for the given replicate.

healthy control LCLs = assay: Mito DNADX mtDNA damage and mtDNA copy number in healthy control-derived LCLs; settings: 10 and 100 nM, 2 h
Procedure: (§1) PD patient G2019S LRRK2 (n = 2) and healthy subject control (n = 2)-derived LCLs were obtained from the NINDS Coriell biorepository (ID numbers are ND00011, ND00264, ND01618, ND02559). There was not a statistical difference in the ages between the PD patient and healthy control subjects (p = 0.92). LCLs were cultured at 37 °C, 5% CO2, in RPMI-1640 (Sigma-Aldrich, R8758), 15% heat-inactivated fetal bovine serum (VWR Seradigm, 97068-091) and 0.5% Penicillin/Streptomycin (Corning, 30-002-CI). […] All in vitro experiments were repeated at least three times from distinct samples.
(§2) The tool compound EB-42168 was discovered as part of a small molecule discovery program aimed at identifying LRRK2 kinase inhibitors that are selective for the pathogenic G2019S LRRK2 variant. […] MLi‐2 inhibits WT LRRK2 ~1000‐fold more than EB‐42168[20].
(§3) Cells were collected and the nuclei and mitochondria were isolated as previously described. DNA was extracted from LRRK2-WT and G2019S-LRRK2 cells, and wild-type and LRRK2^G2019S/G2019S KI cells using QuickGene DNA Whole Blood Kit L (Autogen, fk-dbl). PD patient LRRK2 G2019S and healthy subject control-derived LCL DNA was extracted using the QuickGene DNA Tissue Kit L (Autogen, fk-dtl), utilizing a semi-automated system (Autogen, QuickGene-610L). For the Autogen system, the pellet was resuspended in 2 ml of 1X PBS, and the standard manufacturer’s protocol was conducted as if the cell suspension was whole blood. DNA was eluted with EDTA-free buffer, and quality was assessed using a Spectradrop microvolume microplate (Molecular Devices). Double-stranded DNA was quantified using Quant-iT Picogreen dsDNA assay (Thermo Fisher) as previously described.
(§4) DNA damage in the mitochondrial genome was measured utilizing Mito DNADX, an assay that we recently developed and described, currently the most robust way of measuring damage in mtDNA[39],[82]. The Mito DNADX assay combines optimized polymerase chain reaction (PCR) parameters using a high-fidelity DNA polymerase and a fluorescent dye that binds to double-stranded DNA that permits the real-time quantification of DNA damage in distinct loci in a 96-well platform. The premise of the Mito DNADX assay involves amplification of a specific mitochondrial PCR fragment in which less PCR product will be amplified when mtDNA damage or lesions block the ability of the DNA polymerase to replicate. As such, mtDNA damage or mtDNA repair intermediates that slow down or impair DNA polymerase progression will be detected. […] Briefly, 15 ng of DNA was used to amplify long or short amplicons of the mitochondrial genome (as determined by primer sets). […] Average lesion frequency is calculated as described. […] Each biological DNA sample was analyzed in technical triplicate. […]

[2] = system: G2019S-LRRK2 expressing HEK293 cells; assay: Mito DNADX mtDNA damage and mtDNA copy number in G2019S-LRRK2 overexpressing HEK293 cells; settings: 10 nM-1 μM, 2 h
Procedure: (§5) Cells were plated at a density of 0.3 × 10^6 cells in a 6-well dish and treated at ~40–50% confluency. At the time of harvest, cells were collected and either protein collected or DNA extracted as described below.
as §2, §3
DNA damage in the mitochondrial genome was measured utilizing Mito DNADX, an assay that we recently developed and described, currently the most robust way of measuring damage in mtDNA[39],[82]. The Mito DNADX assay combines optimized polymerase chain reaction (PCR) parameters using a high-fidelity DNA polymerase and a fluorescent dye that binds to double-stranded DNA that permits the real-time quantification of DNA damage in distinct loci in a 96-well platform. The premise of the Mito DNADX assay involves amplification of a specific mitochondrial PCR fragment in which less PCR product will be amplified when mtDNA damage or lesions block the ability of the DNA polymerase to replicate. As such, mtDNA damage or mtDNA repair intermediates that slow down or impair DNA polymerase progression will be detected. Therefore, equal amounts of sample DNA amplified under identical conditions can be directly compared across conditions to determine the mtDNA lesion frequency. Mitochondrial DNA lesion frequency was performed as previously described. Briefly, 15 ng of DNA was used to amplify long or short amplicons of the mitochondrial genome (as determined by primer sets). The amount of amplification is directly proportional to the number of undamaged DNA templates. Average lesion frequency is calculated as described. Results are presented with the values in experimental samples relative to control samples (normalized to 1 lesion per 10 kb). PCR reactions included KAPA Long Range HotStart DNA Polymerase (KAPA Biosystems)[49]. Each biological DNA sample was analyzed in technical triplicate. Limitations of the Mito DNADX assay have been recently discussed.

[3] = system: heterozygous G2019S LRRK2 PD patient-derived LCLs; assay: Mito DNADX mtDNA damage and mtDNA copy number in G2019S LRRK2 PD patient-derived LCLs; settings: 10 and 100 nM, 2 h
Procedure: as §1, §2, §3, §4

[4] = system: WT-LRRK2 expressing HEK293 cells; assay: Mito DNADX mtDNA damage and mtDNA copy number in WT-LRRK2 overexpressing HEK293 cells; settings: 10 nM-1 μM, 2 h
Procedure: as §5, §2, §3
DNA damage in the mitochondrial genome was measured utilizing Mito DNADX, an assay that we recently developed and described, currently the most robust way of measuring damage in mtDNA[39],[82]. The Mito DNADX assay combines optimized polymerase chain reaction (PCR) parameters using a high-fidelity DNA polymerase and a fluorescent dye that binds to double-stranded DNA that permits the real-time quantification of DNA damage in distinct loci in a 96-well platform. The premise of the Mito DNADX assay involves amplification of a specific mitochondrial PCR fragment in which less PCR product will be amplified when mtDNA damage or lesions block the ability of the DNA polymerase to replicate. As such, mtDNA damage or mtDNA repair intermediates that slow down or impair DNA polymerase progression will be detected. Therefore, equal amounts of sample DNA amplified under identical conditions can be directly compared across conditions to determine the mtDNA lesion frequency. Mitochondrial DNA lesion frequency was performed as previously described. Briefly, 15 ng of DNA was used to amplify long or short amplicons of the mitochondrial genome (as determined by primer sets). The amount of amplification is directly proportional to the number of undamaged DNA templates. Average lesion frequency is calculated as described. […] Each biological DNA sample was analyzed in technical triplicate. […]

C[C@@H]1CN(c2cc(-c3n[nH]c4ccc(OC5(C)CC5)cc34)ncn2)C[C@H](C)O1 [MLi-2, reference compound]
basal levels of mitophagy [1]: did not impact | FCCP-stimulated mitophagy defect [1]: failed to rescue | mtDNA copy number (healthy control LCLs): No differences | mtDNA damage (healthy control LCLs): no effect | mtDNA copy number [2]: no effect; also recorded: unaltered | mtDNA damage [2]: restored mtDNA damage to WT-LRRK2 control levels | mtDNA copy number [3]: No differences | mtDNA damage [3]: reversed mtDNA damage | mtDNA copy number [4]: no effect; also recorded: unaltered | mtDNA damage [4]: trend toward an increase in mtDNA damage

CC1=C(C(=O)Nc2ccc3[nH]nc(-c4ccnc(N5CCOCC5)c4)c3c2)C(C)(C)n2nnnc2N1C [EB-42168]
basal levels of mitophagy [1]: did not impact | FCCP-stimulated mitophagy defect [1]: failed to rescue | mtDNA copy number (healthy control LCLs): No differences | mtDNA damage (healthy control LCLs): without an effect | mtDNA copy number [2]: not different; also recorded: did not change | mtDNA damage [2]: normalizing damage to WT-LRRK2 control levels (or lower) | mtDNA damage ([2]; listed as EB-42618): abrogated | mtDNA copy number [3]: No differences | mtDNA damage [3]: restored to control levels | mtDNA copy number [4]: not different; also recorded: did not change | mtDNA damage [4]: No effect
